Reference: patent publication US11352399B2, “Peptide for toll-like receptor (TLR) inhibition and pharmaceutical composition comprising same” (GENESEN CO., LTD., priority 2017, dated 2022)

Columns and labels:
[1] = system: NLRP3 inflammasome; experiment: Western blotting of NLRP3 inflammasome molecules in LPS/ATP-treated THP1 cells; assay type: cell-based, human
[2] = system: TLR4 signaling pathways; experiment: Western blotting of NF-κB, IRF3 and MAPK in LPS-treated RAW 264.7 cells; assay type: cell-based, mouse
Procedure: In order to perform Western blotting, a pre-protein extraction solution (M-PER, Thermo Fisher Scientific Inc.) was mixed with a protease and phosphatase inhibitor mixture, and was added to RAW 264.7 cell or hPBMC cell pellets. The pellets were cooled for 10 minutes, and then the lysates were centrifuged at 16000×g for 10 minutes. Then, NE-PER nuclear and cytoplasmic extraction reagents (Thermo Fisher Scientific Inc.) were used to extract cytoplasmic and nuclear proteins, respectively, and a BCA kit (Sigma-Alderich Co. LLC) was used to measure concentrations of the proteins. Subsequently, the same amounts of proteins were developed on SDS-polyacrylamide gels, and electrophoresis was performed using the Mini-PROTEAN Tetra Cell two-dimensional electrophoresis system (Bio-Rad Laboratories, Hercules, Calif., USA). The membrane was immunoblotted with primary antibodies by gentle shaking overnight at a temperature of 4° C. (in which the primary antibodies were antibodies against p-p65, p-JNK, p-IRF3, ERK, p38, and human IL-1β (Cell Signaling Technology Inc., Danvers, Mass., USA); p-ERK, p-p38, Iκ-Bα, JNK, ATF3, COX2, caspase-1, and β-actin (Santa Cruz Biotechnology Inc., Santa Cruz, Calif., USA); iNOS (BD Biosciences); IL-6 and mouse IL-1β (R&D Systems Inc., Minneapolis, Minn., USA); TNF-α (Thermo Fisher Scientific, Inc.); NLRP3 (Adipogen, San Diego, Calif., USA)). Then, after thorough shaking with PBST, the membrane was incubated with anti-mouse/-rabbit HRP-conjugated secondary antibodies (Thermo Fisher Scientific Inc.) for 2 hours; and the proteins were detected with SuperSignal West Pico ECL solution (Thermo Fisher Scientific Inc.) and were visualized with the Fuji LAS-3000 system (Fujifilm, Tokyo, Japan).
TLR4-mediated responses induced by LPS induce direct interactions between the TIR domain of TIRAP and MyD88, thereby activating MyD88-dependent signaling pathways. In addition, the TLR4-mediated responses induce interactions between the TIR domain of TRAM and TRIF, thereby also activating MyD88-independent signaling pathways. […]

[3] = biological target: T1, TLR1/2 (Mus musculus, UniProt Q9EPQ1+Q9QUN7); experiment: TNF-α secretion in RAW 264.7 cells with PAM3CSK4; assay type: cell-based
T1 construct: host or cells: RAW 264.7

[4] = system: RAW 264.7 cells; experiment: Intracytoplasmic NO and ROS (DAF-FM, DCF-DA) in RAW 264.7 cells; assay type: cell-based, mouse; conditions: TIP1 and LPS
Procedure: RAW 264.7 cells were dispensed into 6-cm dishes (SPL Life Sciences, Pocheon, Korea) to a cell number of 1×10^6 cells/well and incubation was performed overnight. Subsequently, treatment with TIP1 was performed and respective staining with DAF-FM and DCF-DA (Thermo Fisher Scientific, Inc.) was performed. Then, incubation was performed for 1 hour. Thereafter, the cells were collected by centrifugation at 200×g for 5 minutes, transferred to brown tubes, and stored in PBS at a temperature of 4° C. The intensities of DAF-FM, DCF-DA fluorescent materials were measured using FACSAria III with Diva software (BD Biosciences), and quantified.
In addition, according to the method described in Example 2-7, a NO level in the culture supernatant of RAW 264.7 cells was measured using a NO detection kit. The results are illustrated in FIGS. 5(a)-5(c).

[5] = system: TLR7/8; experiment: TNF-α secretion in RAW 264.7 cells with R848; assay type: cell-based, mouse
[6] = system: LPS-injected C57BL/6J mice; experiment: Plasma cytokine secretion in LPS-injected mice; assay type: in vivo, mouse; conditions: TIP1 10 nmol/g i.p., 1 hour later LPS 5 μg/g, blood 1 or 2 hours
Procedure: All animal experiments were conducted under approval of the Institutional Animal Care and Use Committee (KHNMC AP 2016-006). […] The control was injected with the same volume of PBS. Subsequently, the plasma was isolated through centrifugation from the mouse blood and stored at −80° C. until analysis of secretion levels. TNF-α, IL-12p40 (diluted at 1:100), and IL-6 (diluted at 1:100) levels in the plasma were measured using mouse TNF-α, IL-12p40, IL-6 ELISA MAX Deluxe ELISA kits (BioLegend, San Diego, Calif., USA). Absorbance was measured at 450 nm using a microplate reader spectrophotometer (Molecular Devices In.), and the results were analyzed using Softmax Pro 5.3 software (Molecular Devices Inc.). The results are illustrated in FIGS. 14(a)-14(c).

[7] = system: C57BL/6J mice, mouse sepsis model; experiment: Renal and hepatic damage markers and cytokines in plasma, mouse sepsis model (24 hours); assay type: in vivo; conditions: TIP1 and LPS
Procedure: Using the isolated plasma, secretion levels of TNF-α and IL-6 were measured by the method in Experimental Example 9, and changes in secretion levels of the renal damage markers, blood urea nitrogen (BUN) and creatinine (Cr), and the hepatic damage markers, aspartate aminotransferase (AST) and alanine aminotransferase (ALT) were analyzed through VETTEST-8008-system (IDEXX). The results are illustrated in FIGS. 16(a)-16(f).

[8] = LPS together with TIP1, FIG. 2(a)

T1 sequence (Q9EPQ1 26-795): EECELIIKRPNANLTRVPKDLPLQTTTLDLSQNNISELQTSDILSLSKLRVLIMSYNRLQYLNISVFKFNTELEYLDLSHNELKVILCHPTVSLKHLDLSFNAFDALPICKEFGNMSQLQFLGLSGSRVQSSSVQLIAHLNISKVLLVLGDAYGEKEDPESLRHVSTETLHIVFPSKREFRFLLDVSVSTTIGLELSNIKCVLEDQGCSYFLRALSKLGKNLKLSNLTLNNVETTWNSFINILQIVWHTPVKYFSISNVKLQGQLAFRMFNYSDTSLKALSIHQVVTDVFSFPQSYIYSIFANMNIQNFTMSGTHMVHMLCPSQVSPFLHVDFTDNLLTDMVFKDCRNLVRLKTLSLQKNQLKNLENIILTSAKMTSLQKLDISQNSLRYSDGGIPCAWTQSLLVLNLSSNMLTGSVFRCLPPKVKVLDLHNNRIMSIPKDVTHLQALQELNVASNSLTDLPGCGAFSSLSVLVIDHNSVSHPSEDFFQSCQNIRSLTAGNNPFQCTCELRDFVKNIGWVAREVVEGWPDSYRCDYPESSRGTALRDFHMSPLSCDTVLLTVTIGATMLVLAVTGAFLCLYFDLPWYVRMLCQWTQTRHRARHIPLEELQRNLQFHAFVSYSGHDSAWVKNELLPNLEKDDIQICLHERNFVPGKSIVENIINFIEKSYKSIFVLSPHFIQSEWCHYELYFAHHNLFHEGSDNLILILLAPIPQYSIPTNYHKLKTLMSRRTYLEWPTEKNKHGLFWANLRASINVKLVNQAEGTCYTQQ
T1 sequence (Q9QUN7 25-784): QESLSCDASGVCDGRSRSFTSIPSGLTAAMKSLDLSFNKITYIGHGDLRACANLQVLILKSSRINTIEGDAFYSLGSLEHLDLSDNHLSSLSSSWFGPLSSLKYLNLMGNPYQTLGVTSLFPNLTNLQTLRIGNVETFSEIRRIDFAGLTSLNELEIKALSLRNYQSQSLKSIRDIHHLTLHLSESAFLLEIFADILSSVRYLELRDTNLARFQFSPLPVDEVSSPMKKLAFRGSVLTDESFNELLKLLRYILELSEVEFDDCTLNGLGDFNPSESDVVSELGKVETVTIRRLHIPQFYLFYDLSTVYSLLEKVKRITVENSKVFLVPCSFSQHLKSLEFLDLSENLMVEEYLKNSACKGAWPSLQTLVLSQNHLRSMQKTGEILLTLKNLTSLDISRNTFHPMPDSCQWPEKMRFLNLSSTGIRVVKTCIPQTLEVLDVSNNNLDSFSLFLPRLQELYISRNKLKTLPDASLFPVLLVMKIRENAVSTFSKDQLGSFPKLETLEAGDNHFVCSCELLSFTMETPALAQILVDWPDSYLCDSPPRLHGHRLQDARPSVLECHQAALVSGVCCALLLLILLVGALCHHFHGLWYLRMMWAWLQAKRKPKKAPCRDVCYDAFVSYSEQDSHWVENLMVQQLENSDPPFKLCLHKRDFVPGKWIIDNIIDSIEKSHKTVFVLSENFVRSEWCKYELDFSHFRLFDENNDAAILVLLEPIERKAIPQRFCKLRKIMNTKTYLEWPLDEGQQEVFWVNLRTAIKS

RQIKIWFQNRRMKWKKSHCRVLLI (TIP1)
MAPK activity was inhibited: MAPK activity (phosphorylation of ERK, JNK, p38) ([2]; LPS together with TIP1, FIG. 2(b))
decreased: degree of degradation of Iκ-Bα, and activity of IRF3 and ATF3 [2, 8] | secretion level of TNF-α [3] | secretion level of TNF-α [5]
NF-κB activity was inhibited: NF-κB activity (Western blotting) [2, 8]
remarkably decreased: intracellular expression level of NLRP3 [1] | intracellular expression level of active caspase-1 (10 kDa) [1] | intracellular expression level of mature IL-1β (17 kDa) [1] | secretion level of IL-6 in plasma [6] | secretion level of IL-12p40 in plasma [6] | secretion level of TNF-α in plasma [6] | alanine aminotransferase (ALT), hepatic damage marker [7] | aspartate aminotransferase (AST), hepatic damage marker [7] | blood urea nitrogen (BUN), renal damage marker [7] | creatinine (Cr), renal damage marker [7] | secretion level of IL-6 in plasma [7] | secretion level of TNF-α in plasma [7]
effectively decreased: generation level of NO in the cytoplasm ([4]; DAF-FM) | generation level of ROS in the cytoplasm ([4]; DCF-DA)
